Reference: paper PMC12527922, “Cocaine chemogenetics blunts drug-seeking by synthetic physiology” (Nature, 2025)
Several values for one entry are separate records, joined by “and”; a condition that tells them apart may be missing. Identical values can stand only once.

What was measured:
control rats = test: Cocaine IVSA (intravenous self-administration), control rats; assay type: in vivo, rat
[1] = molecular target: α7–GlyR mutant chimeric channels (Homo sapiens, UniProt P36544, W77F); test: Membrane potential assay screen, mutant α7–GlyR chimeric channels; assay type: cell-based; conditions: EC50 at a7 GlyR W77F, sheet 1d
Sequence of α7–GlyR mutant chimeric channels (Homo sapiens, UniProt P36544, W77F) (P36544 23-230 W77F): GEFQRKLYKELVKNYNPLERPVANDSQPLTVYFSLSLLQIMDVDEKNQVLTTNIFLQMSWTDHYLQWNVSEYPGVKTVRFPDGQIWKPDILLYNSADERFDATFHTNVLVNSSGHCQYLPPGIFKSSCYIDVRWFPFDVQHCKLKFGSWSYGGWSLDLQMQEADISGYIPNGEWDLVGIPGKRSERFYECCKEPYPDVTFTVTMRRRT
Sequence of α7–GlyR mutant chimeric channels (Homo sapiens, UniProt P36544, W77F) (P23415 248-457 partner): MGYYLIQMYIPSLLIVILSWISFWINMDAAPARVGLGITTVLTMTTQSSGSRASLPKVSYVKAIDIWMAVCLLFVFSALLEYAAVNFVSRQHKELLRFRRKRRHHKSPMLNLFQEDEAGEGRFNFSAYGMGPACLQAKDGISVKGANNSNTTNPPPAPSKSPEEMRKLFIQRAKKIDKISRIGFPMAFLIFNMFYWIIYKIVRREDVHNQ

[2] = molecular target: α7–GlyR mutant chimeric channels (Homo sapiens, UniProt P36544, L131N); test: as above; assay type: cell-based; conditions: EC50 at α7 GlyR L131N, sheet 1d
Sequence of α7–GlyR mutant chimeric channels (Homo sapiens, UniProt P36544, L131N) (P36544 23-230 L131N): as the sequence (P36544 23-230 W77F) above, with F55W, L109N counted along it
Sequence of α7–GlyR mutant chimeric channels (Homo sapiens, UniProt P36544, L131N) (P23415 247-457 partner): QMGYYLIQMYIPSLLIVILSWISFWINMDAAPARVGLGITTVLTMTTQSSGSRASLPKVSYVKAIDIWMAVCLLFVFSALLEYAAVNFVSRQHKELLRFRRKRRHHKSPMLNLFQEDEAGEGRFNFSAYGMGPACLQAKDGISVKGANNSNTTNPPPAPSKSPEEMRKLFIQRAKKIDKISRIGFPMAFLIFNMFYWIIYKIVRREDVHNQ

[3] = molecular target: α7–GlyR mutant chimeric channels (Homo sapiens, UniProt P36544, L131G); test: as above; assay type: cell-based; conditions: EC50 at α7GlyR L131G, sheet 1d
Sequence of α7–GlyR mutant chimeric channels (Homo sapiens, UniProt P36544, L131G) (P36544 23-229 L131G): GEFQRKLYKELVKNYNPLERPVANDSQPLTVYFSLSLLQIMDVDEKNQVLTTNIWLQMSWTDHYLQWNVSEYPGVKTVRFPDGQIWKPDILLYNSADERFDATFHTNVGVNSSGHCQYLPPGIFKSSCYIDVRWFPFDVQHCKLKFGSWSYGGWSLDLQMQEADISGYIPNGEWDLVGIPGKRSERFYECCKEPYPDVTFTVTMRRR
Sequence of α7–GlyR mutant chimeric channels (Homo sapiens, UniProt P36544, L131G) (P23415 248-457 partner): as the sequence (P23415 248-457 partner) above

[4] = molecular target: α7–GlyR mutant chimeric channels (Homo sapiens, UniProt P36544, L131K); test: as above; assay type: cell-based; conditions: EC50 at α7 GlyR L131K, sheet 1d
Sequence of α7–GlyR mutant chimeric channels (Homo sapiens, UniProt P36544, L131K) (P36544 23-229 L131K): as the sequence (P36544 23-229 L131G) above, with G109K counted along it
Sequence of α7–GlyR mutant chimeric channels (Homo sapiens, UniProt P36544, L131K) (P23415 248-457 partner): as the sequence (P23415 248-457 partner) above

[5] = molecular target: α7–GlyR mutant chimeric channels (Homo sapiens, UniProt P36544, Q79A); test: as above; assay type: cell-based; conditions: EC50 at α7-GlyR Q79A, sheet 1d
[6] = molecular target: α7–GlyR mutant chimeric channels (Homo sapiens, UniProt P36544, Q139G); test: as above; assay type: cell-based; conditions: EC50 at α7 GlyR Q139G, sheet 1d
Sequence of α7–GlyR mutant chimeric channels (Homo sapiens, UniProt P36544, Q139G) (P36544 23-230 Q139G): as the sequence (P36544 23-230 W77F) above, with F55W, Q117G counted along it
Sequence of α7–GlyR mutant chimeric channels (Homo sapiens, UniProt P36544, Q139G) (P23415 248-457 partner): as the sequence (P23415 248-457 partner) above

[7] = molecular target: α7–GlyR mutant chimeric channels (Homo sapiens, UniProt P36544, Q79G); test: as above; assay type: cell-based; conditions: EC50 at α7-GlyR Q79G, sheet 1d
[8] = molecular target: α7–GlyR mutant chimeric channels (Homo sapiens, UniProt P36544, L141F); test: as above; assay type: cell-based; conditions: EC50 at α7 GlyR L141F, sheet 1d
Sequence of α7–GlyR mutant chimeric channels (Homo sapiens, UniProt P36544, L141F) (P36544 23-230 L141F): as the sequence (P36544 23-230 W77F) above, with F55W, L119F counted along it
Sequence of α7–GlyR mutant chimeric channels (Homo sapiens, UniProt P36544, L141F) (P23415 247-457 partner): as the sequence (P23415 247-457 partner) above

[9] = molecular target: α7–GlyR mutant chimeric channels (Homo sapiens, UniProt P36544, P216M); test: as above; assay type: cell-based; conditions: EC50 at α7 GlyR P216M, sheet 1d
Sequence of α7–GlyR mutant chimeric channels (Homo sapiens, UniProt P36544, P216M) (P36544 23-230 P216M): as the sequence (P36544 23-230 W77F) above, with F55W, P194M counted along it
Sequence of α7–GlyR mutant chimeric channels (Homo sapiens, UniProt P36544, P216M) (P23415 248-457 partner): as the sequence (P23415 248-457 partner) above

[10] = molecular target: α7–GlyR mutant chimeric channels (Homo sapiens, UniProt P36544, L131Q); test: as above; assay type: cell-based; conditions: EC50 at α7 GlyR L131Q, sheet 1d
[11] = molecular target: α7–GlyR mutant chimeric channels (Homo sapiens, UniProt P36544, L141A); test: as above; assay type: cell-based; conditions: EC50 at α7 GlyR L141A, sheet 1d
Sequence of α7–GlyR mutant chimeric channels (Homo sapiens, UniProt P36544, L141A) (P36544 23-230 L141A): as the sequence (P36544 23-230 W77F) above, with F55W, L119A counted along it
Sequence of α7–GlyR mutant chimeric channels (Homo sapiens, UniProt P36544, L141A) (P23415 247-457 partner): as the sequence (P23415 247-457 partner) above

[12] = molecular target: α7–GlyR mutant chimeric channels (Homo sapiens, UniProt P36544, P216V); test: as above; assay type: cell-based; conditions: EC50 at α7 GlyR P216V, sheet 1d
[13] = molecular target: α7–GlyR mutant chimeric channels (Homo sapiens, UniProt P36544, P216A); test: as above; assay type: cell-based; conditions: EC50 at α7 GlyR P216A, sheet 1d
[14] = molecular target: α7–GlyR mutant chimeric channels (Homo sapiens, UniProt P36544, L141P); test: as above; assay type: cell-based; conditions: EC50 at α7 GlyR L141P, sheet 1d
[15] = molecular target: α7–GlyR mutant chimeric channels (Homo sapiens, UniProt P36544, L131F); test: as above; assay type: cell-based; conditions: EC50 at α7GlyR L131F, sheet 1d
[16] = molecular target: α7–GlyR mutant chimeric channels (Homo sapiens, UniProt P36544, P216I); test: as above; assay type: cell-based; conditions: EC50 at α7 GlyR P216I, sheet 1d
[17] = molecular target: α7–GlyR mutant chimeric channels (Homo sapiens, UniProt P36544, L141G); test: as above; assay type: cell-based; conditions: EC50 at α7 GlyR L141G, sheet 1d
Sequence of α7–GlyR mutant chimeric channels (Homo sapiens, UniProt P36544, L141G) (P36544 23-230 L141G): as the sequence (P36544 23-230 W77F) above, with F55W, L119G counted along it
Sequence of α7–GlyR mutant chimeric channels (Homo sapiens, UniProt P36544, L141G) (P23415 247-457 partner): as the sequence (P23415 247-457 partner) above

[18] = molecular target: α7–GlyR mutant chimeric channels (Homo sapiens, UniProt P36544, Q79S); test: as above; assay type: cell-based; conditions: EC50 at α7-GlyR Q79S, sheet 1d
Sequence of α7–GlyR mutant chimeric channels (Homo sapiens, UniProt P36544, Q79S) (P36544 23-230 Q79S): as the sequence (P36544 23-230 W77F) above, with F55W, Q57S counted along it
Sequence of α7–GlyR mutant chimeric channels (Homo sapiens, UniProt P36544, Q79S) (P23415 248-457 partner): as the sequence (P23415 248-457 partner) above

[19] = molecular target: α7–GlyR mutant chimeric channels (Homo sapiens, UniProt P36544, L131A); test: as above; assay type: cell-based; conditions: EC50 at α7GlyR L131A, sheet 1d
[20] = molecular target: α7–GlyR mutant chimeric channels (Homo sapiens, UniProt P36544, L131M); test: as above; assay type: cell-based; conditions: EC50 at α7 GlyR L131M, sheet 1d
Sequence of α7–GlyR mutant chimeric channels (Homo sapiens, UniProt P36544, L131M) (P36544 23-229 L131M): as the sequence (P36544 23-229 L131G) above, with G109M counted along it
Sequence of α7–GlyR mutant chimeric channels (Homo sapiens, UniProt P36544, L131M) (P23415 247-457 partner): as the sequence (P23415 247-457 partner) above

`COC(=O)[C@H]1[C@@H](OC(=O)c2ccccc2)C[C@@H]2CC[C@H]1N2C` [cocaine] was tested, and the “Sheet 3g, Mean (per-rat counts at each dose)” value (control rats; Dose 0.0625) was 37.2, the “Sheet 3h, Mean (sheet 3g count x dose, intake)” value (“Sheet 3h, Mean” below) (control rats; Dose 0.0625) was 2.325 and the “Sheet 3g, Mean (per-rat counts at each dose)” value (control rats; Dose 0.125) was 69.7333. For the same molecule, the “Sheet 3h, Mean” value (control rats; Dose 0.125) was 8.717, the “Sheet 3g, Mean (per-rat counts at each dose)” value (control rats; Dose 0.25) was 50.5385 and the “Sheet 3h, Mean” value (control rats; Dose 0.25) was 12.6346. For the same molecule, the “Sheet 3g, Mean (per-rat counts at each dose)” value (control rats; Dose 0.5) was 27.6667, the “Sheet 3h, Mean” value (control rats; Dose 0.5) was 13.8333 and the “Sheet 3g, Mean (per-rat counts at each dose)” value (control rats; Dose 1) was 15. For the same molecule, the “Sheet 3h, Mean” value (control rats; Dose 1) was 15, the EC50 ([1]; Avg) was 3.4 µM and the EC50 ([1]; single determinations) was 3.4 µM. The EC50 ([2]; Avg) was 21 µM, the EC50 ([2]; single determinations) was 12 µM and > 30 µM and the EC50 ([3]; Avg) was greater than 30 µM. It also gave an EC50 ([3]; single determinations) greater than 30 µM, an EC50 ([4]; Avg) greater than 30 µM and an EC50 ([4]; single determinations) greater than 30 µM. It also gave an EC50 ([5]; Avg) greater than 30 µM, an EC50 ([5]; single determinations) greater than 30 µM and an EC50 ([6]; Avg) greater than 30 µM. For the same molecule, the EC50 ([6]; single determinations) was greater than 30 µM, the EC50 ([7]; Avg) was greater than 30 µM and the EC50 ([7]; single determinations) was greater than 30 µM. For the same molecule, the EC50 ([8]; Avg) was greater than 30 µM, the EC50 ([8]; single determinations) was greater than 30 µM and the EC50 ([9]; Avg) was greater than 30 µM. It also gave an EC50 ([9]; single determinations) greater than 30 µM, an EC50 ([10]; Avg) greater than 30 µM and an EC50 ([10]; single determinations) greater than 30 µM. The EC50 ([11]; Avg) was 5 µM, the EC50 ([11]; single determinations) was 6.7 µM and 3.3 µM and the EC50 ([12]; Avg) was greater than 30 µM. It also gave an EC50 ([12]; single determinations) greater than 30 µM, an EC50 ([13]; Avg) greater than 30 µM and an EC50 ([13]; single determinations) greater than 30 µM. For the same molecule, the EC50 ([14]; Avg) was greater than 30 µM, the EC50 ([14]; single determinations) was greater than 30 µM and the EC50 ([15]; Avg) was greater than 30 µM. The EC50 ([15]; single determinations) was greater than 30 µM, the EC50 ([16]; Avg) was greater than 30 µM and the EC50 ([16]; single determinations) was greater than 30 µM. The EC50 ([17]; Avg) was 8.3 µM, the EC50 ([17]; single determinations) was 5.6 µM and 11 µM and the EC50 ([18]; Avg) was greater than 30 µM. It also gave an EC50 ([18]; single determinations) greater than 30 µM, an EC50 ([19]; Avg) greater than 30 µM and an EC50 ([19]; single determinations) greater than 30 µM. It also gave an EC50 ([20]; Avg) greater than 30 µM and an EC50 ([20]; single determinations) greater than 30 µM.
